Test systems include Escherichia coli; Escherichia coli K-12; Campylobacter jejuni.
Common to all, as to test: ≥ marks a high value that may be exact or a test limit, other limits are often not marked, values filed in µg/mL are converted to µM
For experiment [1], the system named is Escherichia coli ATCC 25922.
In experiment [2] the test system is Listeria monocytogenes ATCC 19115.
In experiment [3] the test system is Staphylococcus aureus ATCC 25923.
Experiment [4] concerns Pseudomonas aeruginosa ATCC 27853.
Experiment [5] has as its system Bacillus subtilis ATCC 6633.
Experiment [6] concerns Klebsiella pneumoniae H507.
Experiment [7] deals with Streptococcus suis CVCC 606.
The subject of experiment [8] is Salmonella enterica subsp. enterica serovar Enteritidis CVCC 3377.
For experiment [9], the system named is Klebsiella pneumoniae Q14-0095.
The test system of experiment [10] is Campylobacter jejuni NCTC 11351.
Experiment [11] deals with Staphylococcus aureus RN4220.
Experiment [12] concerns Enterococcus faecalis JH-2-2.
For experiment [13], the system named is Salmonella typhimurium SL1344.
For experiment [14], the system named is Acinetobacter baumannii Q12-0809.
Experiment [15] deals with Pseudomonas aeruginosa Q14-0890.
Experiment [16] has as its system Listeria monocytogenes NCTC 11994.
For experiment [17], the system named is Pseudomonas aeruginosa Q12-0535.
The subject of experiment [18] is Staphylococcus aureus Q14-0320.
Experiment [19] concerns Pseudomonas aeruginosa PAO1.
The subject of experiment [20] is Klebsiella pneumoniae ATCC 700603.
For experiment [21], the system named is Staphylococcus aureus Q14-0325.
In experiment [22] the test system is Acinetobacter baumannii Q13-0717.
Experiment [23] relates to Staphylococcus aureus MRSA-15.
For experiment [24], the system named is Staphylococcus aureus ATCC 29213.
In experiment [25] the test system is Klebsiella pneumoniae Q14-0285.
Experiment [26] relates to Klebsiella pneumoniae NCTC 13442.
Experiment [27] has as its system Staphylococcus aureus NCTC 12493.
In experiment [28] the test system is Pseudomonas aeruginosa Q14-0208.
The subject of experiment [29] is Bacillus cereus ATCC 11778.
Experiment [30] relates to Serratia marcescens ATCC 21202.
In experiment [31] the test system is Salmonella enterica subsp. enterica serovar Enteritidis ATCC 13076.
The subject of experiment [32] is Streptococcus pyogenes ATCC 19615.
The test system of experiment [33] is Listeria monocytogenes ATCC 19112.
Experiment [34] deals with Pseudomonas aeruginosa ATCC 15442.

Converted amounts (≈) assume the structure as drawn.

As usually defined, the MIC is the smallest concentration in the dilution series that meets the test's criterion for growth inhibition. With `CC[C@H](C)[C@H](NC(=O)[C@H](Cc1ccccc1)NC(=O)[C@H](CC(=O)O)NC(=O)[C@H](CCCCN)NC(=O)[C@H](CCCCN)NC(=O)[C@H](CCC(=O)O)NC(=O)[C@H](Cc1c[nH]c2ccccc12)NC(=O)[C@@H](NC(=O)[C@@H](NC(=O)[C@H](CCCCN)NC(=O)[C@@H](NC(=O)[C@H](CCCCN)NC(=O)[C@H](CCCN=C(N)N)NC(=O)[C@H](CCCN=C(N)N)NC(=O)[C@H](CCSC)NC(=O)[C@@H](NC(=O)[C@H](CCCN=C(N)N)NC(=O)[C@H](CCSC)NC(=O)[C@@H](N)CCSC)C(C)C)[C@@H](C)O)C(C)C)[C@@H](C)CC)C(=O)NCC(=O)N[C@@H](CC(C)C)C(=O)N[C@@H](Cc1ccc(O)cc1)C(=O)N[C@@H](CO)C(=O)N[C@H](C(=O)N[C@@H](CC(=O)O)C(=O)O)[C@@H](C)CC` [MMRVMRRKTKVIWEKKDFIGLYSID], the minimal inhibitory concentration (MIC) in experiment [1] is 0.986 µM (≈ 3.1 µg/mL); in [2], 3.97 µM (≈ 12.5 µg/mL); in experiment [3], 0.986 µM (≈ 3.1 µg/mL); in [4], 3.97 µM (≈ 12.5 µg/mL); in experiment [5], 7.95 µM (≈ 25 µg/mL); in experiment [6] it was 7.95 µM (≈ 25 µg/mL). Moreover, the minimal inhibitory concentration (MIC) in experiment [7] was 0.986 µM (≈ 3.1 µg/mL); in experiment [8], 2 µM (≈ 6.3 µg/mL).
On to `CC(C)C[C@H](NC(=O)[C@H](CO)NC(=O)[C@H](CO)NC(=O)[C@H](CO)NC(=O)[C@H](CCCN=C(N)N)NC(=O)[C@@H](NC(=O)[C@H](CCCN=C(N)N)NC(=O)[C@H](Cc1c[nH]c2ccccc12)NC(=O)[C@H](CS)NC(=O)[C@H](CC(N)=O)NC(=O)[C@H](CCCN=C(N)N)NC(=O)[C@H](Cc1ccccc1)NC(=O)[C@H](C)NC(=O)[C@H](CCCCN)NC(=O)[C@H](Cc1c[nH]c2ccccc12)NC(=O)[C@H](CCCN=C(N)N)NC(=O)[C@H](Cc1c[nH]c2ccccc12)NC(=O)[C@H](C)N)C(C)C)C(=O)O` [AWRWKAFRNCWRVRSSSL], for which the minimum inhibitory concentration (MIC) in experiment [9] was ≥ 55.4 µM; with Escherichia coli, > 55.4 µM; in [10], ≥ 55.4 µM; with Escherichia coli K-12, 27.7 µM (≈ 64 µg/mL); in experiment [11] it was 27.7 µM (≈ 64 µg/mL); in experiment [12] it was 27.7 µM (≈ 64 µg/mL). The MIC was ≥ 55.4 µM with Campylobacter jejuni; 13.9 µM (≈ 32 µg/mL) in experiment [13]; 13.9 µM (≈ 32 µg/mL) in experiment [14]; 13.9 µM (≈ 32 µg/mL) in [15]; 27.7 µM (≈ 64 µg/mL) in experiment [16]; ≥ 55.4 µM in [17]. Moreover, the MIC in experiment [18] is ≥ 55.4 µM; in experiment [4], > 55.4 µM; in [19], 13.9 µM (≈ 32 µg/mL); in experiment [20], 55.4 µM (≈ 128 µg/mL); in experiment [21], ≥ 55.4 µM; in [22], 27.7 µM (≈ 64 µg/mL). For the same molecule, the minimum inhibitory concentration (MIC) in experiment [23] is 27.7 µM (≈ 64 µg/mL); in experiment [24] it was 55.4 µM (≈ 128 µg/mL); in experiment [25], ≥ 55.4 µM; in [26], ≥ 55.4 µM; in [27], 13.9 µM (≈ 32 µg/mL); in [28] it was 27.7 µM (≈ 64 µg/mL).
Turning to `CC[C@H](C)[C@H](N)C(=O)N[C@H](C(=O)N1CCC[C@H]1C(=O)N[C@@H](CC(C)C)C(=O)N1CCC[C@H]1C(=O)N[C@@H](CC(C)C)C(=O)NCC(=O)N[C@@H](Cc1ccc(O)cc1)C(=O)N[C@@H](Cc1ccccc1)C(=O)N[C@@H](C)C(=O)N[C@@H](CCCCN)C(=O)N[C@@H](CCCCN)C(=O)N[C@@H](CCCCN)C(=O)N[C@@H](CCCCN)C(=O)N[C@@H](CCCCN)C(=O)N[C@@H](CCCCN)C(=O)N[C@@H](CC(=O)O)C(=O)N1CCC[C@H]1C(=O)N[C@H](C(=O)N1CCC[C@H]1C(=O)N[C@@H](CC(C)C)C(=O)N[C@@H](CC(=O)O)C(=O)N[C@@H](CCC(N)=O)C(=O)O)C(C)C)[C@@H](C)CC` [IIPLPLGYFAKKKKKKDPVPLDQ], the MIC in [1] was > 37.9 µM; in experiment [29] it was ≥ 37.9 µM; in experiment [4] it was > 37.9 µM; in [20] it was > 37.9 µM; in experiment [30] it was ≥ 37.9 µM; in experiment [31], ≥ 37.9 µM. In addition, the MIC in experiment [32] is ≥ 37.9 µM; in experiment [24], > 37.9 µM.
For the molecule `CC[C@H](C)[C@H](NC(=O)[C@H](CO)NC(=O)[C@@H](N)CC(C)C)C(=O)N[C@@H](CCCN=C(N)N)C(=O)N[C@@H](CCCN=C(N)N)C(=O)N[C@@H](CC(C)C)C(=O)N[C@@H](CC(C)C)C(=O)N[C@@H](C)C(=O)N[C@@H](C)C(=O)NCC(=O)N[C@H](C(=O)N[C@@H](CC(C)C)C(=O)N[C@@H](CCCCN)C(=O)N[C@@H](CCC(N)=O)C(=O)N[C@H](C(=O)N[C@@H](CCCCN)C(=O)NCC(=O)N[C@H](C(=O)NCC(=O)N[C@@H](C)C(=O)O)C(C)C)[C@@H](C)O)C(C)C` [LSIRRLLAAGVLKQTKGVGA], the results for the MIC in experiment [33] and in [34] were 31.2 µM (≈ 64 µg/mL) and 13 µM (≈ 26.7 µg/mL), respectively.

These data come from DBAASP.
